Test results from ChEMBL document CHEMBL1641403, “Scytonemides A and B, cyclic peptides with 20S proteasome inhibitory activity from the cultured cyanobacterium Scytonema hofmanii” (J Nat Prod, 2010).

Key:
[1] = system: HT-29; test: Inhibition of 20S proteasome in human HT-29 cells; type: cell-based
[2] = system: HT-29; test: Cytotoxicity against human HT-29 cells; type: cell-based
[3] = system: HT-29; test: Inhibition of 20S proteasome in human HT-29 cells at 6.7 uM by luminescence-based assay; type: cell-based
[4] = Chemical stability of the compound; type: physicochemical
[5] = Metabolic stability of the compound in human HT-29 cells; type: ADME, cell-based; conditions: read-out: Stability (converted)
[6] = Inhibition of human 20S proteasome

Stability [4] [days]	half-life [5] [h]	IC50 [6] [µM]	SMILES	ED50 [1] [µg/mL]	Activity [2]	inhibition [3] [%]
3	2	–	CC[C@H](C)[C@H]1NC(=O)[C@@H](CCC(N)=O)NC(=O)CNC(=O)[C@H](Cc2ccc(O)cc2)/N=C/[C@H](CC(C)C)NC(=O)[C@H](C(C)C)NC(=O)[C@H](CO)NC1=O [SCYTONEMIDES A]	> 20	Non-toxic	80
–	–	> 50	CCCCC[C@H]1CC(=O)N[C@@H](CO)C(=O)N[C@@H](Cc2ccccc2)C(=O)N[C@@H](Cc2ccc(O)cc2)C(=O)N[C@H](CCCNC(N)=O)C(=O)N[C@@H](CC(=O)O)C(=O)O1 [scytonemides B]	–	–	–
